# In US9149465B2, “Isoxazolines as inhibitors of fatty acid amide hydrolase” (Infinity Pharmaceuticals, Inc., priority 2009, dated 2015):
# Target: T1, human FAAH (Homo sapiens, UniProt O00519)
# T1 construct: host or cells: COS-7 cells, transient transfection; 13,000 g membrane fraction solubilised in 1% Triton X-100
# T1 sequence (O00519 1-579): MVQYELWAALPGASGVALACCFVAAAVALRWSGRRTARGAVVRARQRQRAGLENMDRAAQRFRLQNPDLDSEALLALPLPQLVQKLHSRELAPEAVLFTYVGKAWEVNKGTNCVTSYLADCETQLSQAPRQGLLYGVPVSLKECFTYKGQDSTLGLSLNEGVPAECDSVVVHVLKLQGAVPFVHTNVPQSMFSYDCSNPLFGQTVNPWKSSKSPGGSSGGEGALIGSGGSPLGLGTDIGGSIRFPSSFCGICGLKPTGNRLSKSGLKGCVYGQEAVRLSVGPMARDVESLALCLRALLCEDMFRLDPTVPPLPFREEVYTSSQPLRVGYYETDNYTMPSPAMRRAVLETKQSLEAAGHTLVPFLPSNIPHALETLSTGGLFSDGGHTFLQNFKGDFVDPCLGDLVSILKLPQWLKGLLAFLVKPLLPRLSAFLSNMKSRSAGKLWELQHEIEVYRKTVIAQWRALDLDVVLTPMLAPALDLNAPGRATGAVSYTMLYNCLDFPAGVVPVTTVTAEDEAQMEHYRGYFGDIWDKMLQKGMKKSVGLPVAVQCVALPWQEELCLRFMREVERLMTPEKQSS
# Test: Inhibition of human FAAH (AMC arachidonoyl amide fluorescence assay)
# Assay type: biochemical
# Conditions: inhibitor preincubated 30 minutes at room temperature; 20 μM AMC arachidonoyl amide; 4 hours; read-out: Activity (Ki, inhibitors of human FAAH)
# Description: Human FAAH Preparation: COS-7 cells were split the day before, 1:5 into 150 mm x […] cell culture dishes (Corning Inc., Cat. No. 430599). Transient transfection took place at 30-40% confluency according to FuGENE 6 Transfection Reagent (Roche, Cat. No. 11814 443 001).
# Transfection Procedure: The FuGENE transfection 6 reagent (45 uL) was added to 1410 μL of media (DMEM, serum free without pen/strep) in a 15 mL conical tube and incubated at room temp for 5 minutes, followed by the addition of FAAH plasmid DNA (15 μg) (OriGene Cat. No. TC119221, Genbank Accession No. NM_001441.1, 0.67 ug/uL) and a further incubation of 15 minutes at room temperature. The resulting solution was added into one dish of 30-40% confluent COS-7 cells in a drop-wise manner. The COS-7 cell dish was subsequently incubated for 48 hours. The cells are then harvested.
# Harvest procedure: Media was aspirated from the dishes and the cells rinsed with 10 mL PBS. The PBS was removed and 3 mL of PBS added to the dish. The dish was scraped to resuspend the cells, and the subsequent cell suspension collected into a 15 mL conical tube. The cells were pelleted by centrifugation at 1200 rpm for 5 minutes in a bench top centrifuge. PBS was removed and the cell pellet snap frozen in liquid nitrogen and stored at −80° C.
# COS-7 cells —FAAH purification: • (1) Fractionation: Frozen cell pellets from transient transfections were thawed on ice and resuspended in 12.5 mM Hepes pH 8.0, 100 mM NaCl, 1 mM EDTA (10 mL/0.2 g cell pellet). The pellets were dounce homogenized and then sonicated to produce cell extract. The cell extract was subsequently centrifuged at 1000 g to remove cellular debris. The pellet was discarded and the supernatant centrifuged at 13,000 g for 20 minutes. The pellet contained membrane bound FAAH. The supernatant was discarded and the pellet resolubilized. • (2) Re-solubilization: The fraction of interest, (13,000 g, membrane fraction) was re-suspended in 2.3 mL re-suspension buffer (20 mM Hepes pH 7.8, 10% v/v Glycerol, 1 mM EDTA, 1% Triton X-100) and the sample incubated on ice for 1 hour and then centrifuged to remove any particulate matter. The supernatant containing solubilized human FAAH was aliquoted and snap frozen in liquid nitrogen and stored at −80° C. until use. • (3) Characterization: Protein Concentration determined by Bradford assay. • SDS gel and Western blot to confirm presence of FAAH • FAAH activity assay • Km determination-96-well assay • Linear dependence—96-well assay • Standard compound Ki determination—384-well assay
# Human FAAH assay; Experimental Protocol: A 0.1 mg/mL Human FAAH solution was made up in FAAH reaction buffer, and 24 ul pipeted into a 384 well plate. To this was added 1 μL of a 3 fold serially diluted inhibitor from a DMSO stock solution. The FAAH solution and inhibitor were incubated for 30 minutes at room temperature. The FAAH reaction was initiated by the addition of 25 μL of 40 μM AMC Arachidonoyl Amide in FAAH reaction buffer, yielding a final reaction human FAAH preparation concentration of 0.05 mg/ml and AMC-Arachidonoyl substrate concentration of 20 μM, reaction volume 50 μL. The reaction was allowed to proceed for 4 hours at room temperature. The reaction was stopped by the addition of 25 μL 12 μM a-ketoheterocycle (Cayman Chemicals, catalogue #10435). The microtiter plate was read in the envision plate reader.
# The raw fluorescence was plotted on the y axis and the inhibitor concentration on the x axis to give a dose response inhibition curve. The data was fitted to a single site competitive inhibition equation, fixing the Km for the human enzyme to 12 μM and 9 μM respectively.
row,Structure (SMILES),Ki
1,O=C(O)CNC(=O)c1ccc(OC2=NOC(c3ccc(OC(F)(F)F)cc3)C2)cn1 (racemic) [I-106],≤ 100 nM
2,CNC(=O)c1ccc(OC2=NOC(c3ccc(OC(F)(F)F)cc3)C2)cn1 (racemic) [I-107],≤ 100 nM
3,CN(C)C(=O)c1ccc(OC2=NOC(c3ccc(OC(F)(F)F)cc3)C2)cn1 (racemic) [I-108],100 to 1000 nM
4,O=C(NCCO)c1ccc(OC2=NOC(c3ccc(OC(F)(F)F)cc3)C2)cn1 (racemic) [I-109],≤ 100 nM
5,O=C(O)c1ccc(OC2=NOC(c3ccc(Oc4ccccc4)cc3)C2)cn1 (racemic) [I-110],≤ 100 nM
6,CN(C)C(=O)c1ccc(OC2=NOC(c3ccc(Oc4ccccc4)cc3)C2)cn1 (racemic) [I-111],≤ 100 nM
7,FC(F)(F)Oc1ccc(C2CC(Oc3cncnc3)=NO2)cc1 (racemic) [I-112],≤ 100 nM
8,CC1(c2ccc(OC(F)(F)F)cc2)CC(Oc2ccc(C(=O)O)nc2)=NO1 (racemic) [I-113],≤ 100 nM
9,CNC(=O)c1ccc(OC2=NOC(C)(c3ccc(OC(F)(F)F)cc3)C2)cn1 (racemic) [I-114],≤ 100 nM
10,CCNC(=O)c1ccc(OC2=NOC(C)(c3ccc(OC(F)(F)F)cc3)C2)cn1 (racemic) [I-115],≤ 100 nM
11,CC1(c2ccc(OC(F)(F)F)cc2)CC(Oc2ccc(C(=O)NCC(F)(F)F)nc2)=NO1 (racemic) [I-116],100 to 1000 nM
12,CC1(c2ccc(OC(F)(F)F)cc2)CC(Oc2ccc(C(=O)NO)nc2)=NO1 (racemic) [I-117],≤ 100 nM
13,NC(=O)CNC(=O)c1ccc(OC2=NOC(c3ccc(OC(F)(F)F)cc3)C2)cn1 (racemic) [I-118],100 to 1000 nM
14,Fc1cccc(-c2ccc(C3CC(Oc4cncnc4)=NO3)c(F)c2)c1 (racemic) [I-119],≤ 100 nM
15,Fc1cc([C@H]2CC(Br)=NO2)ccc1OC(F)(F)F (racemic) [I-120],≤ 100 nM
16,Fc1cc([C@H]2CC(Oc3cncnc3)=NO2)ccc1OC(F)(F)F (racemic) [I-121],≤ 100 nM
17,COC(=O)c1ccc(OC2=NO[C@@H](c3ccc(OC(F)(F)F)c(F)c3)C2)cn1 (racemic) [I-122],≤ 100 nM
18,O=C(O)c1ccc(OC2=NO[C@@H](c3ccc(OC(F)(F)F)c(F)c3)C2)cn1 (racemic) [I-123],≤ 100 nM
19,FC(F)(F)Oc1ccc([C@H]2CC(Br)=NO2)cc1Cl (racemic) [I-124],≤ 100 nM

row,Structure (SMILES),Ki
1,FC(F)(F)Oc1ccc(C2CC(Oc3cncnc3)=NO2)cc1Cl (racemic) [I-125],≤ 100 nM
2,FC1(F)Oc2ccc(C3CC(Br)=NO3)cc2O1 (racemic) [I-126],≤ 100 nM
3,FC1(F)Oc2ccc([C@H]3CC(Oc4cncnc4)=NO3)cc2O1 (racemic) [I-127],100 to 1000 nM
4,O=C(O)CCc1ccc(OC2=NOC(c3ccc(OC(F)(F)F)cc3)C2)cn1 (racemic) [I-128],≤ 100 nM
5,CC1(c2ccc(OC(F)(F)F)cc2)CC(Oc2cncnc2)=NO1 (racemic) [I-129],≤ 100 nM
6,FC(F)(F)C1(c2ccc(Oc3ccccc3)cc2)CC(Br)=NO1 (racemic) [I-130],100 to 1000 nM
7,FC(F)(F)C1(c2ccc(Oc3ccccc3)cc2)CC(Oc2cncnc2)=NO1 (racemic) [I-131],≤ 100 nM
8,CSc1ncc(OC2=NOC(c3ccc(OC(F)(F)F)cc3)C2)cn1 (racemic) [I-132],100 to 1000 nM
9,CS(=O)(=O)c1ncc(OC2=NOC(c3ccc(OC(F)(F)F)cc3)C2)cn1 (racemic) [I-133],≤ 100 nM
10,CSc1ccc(OC2=NOC(c3ccc(OC(F)(F)F)cc3)C2)cn1 (racemic) [I-134],≤ 100 nM
11,CS(=O)(=O)c1ccc(OC2=NOC(c3ccc(OC(F)(F)F)cc3)C2)cn1 (racemic) [I-135],≤ 100 nM
12,COc1ncc(OC2=NOC(c3ccc(OC(F)(F)F)cc3)C2)cc1F (racemic) [I-136],100 to 1000 nM
13,CCCCOc1ccc([C@H]2CC(Oc3ccc(C(=O)OC)nc3)=NO2)cc1 (racemic) [I-137],≤ 100 nM
14,CCCCOc1ccc([C@H]2CC(Oc3ccc(C(=O)O)nc3)=NO2)cc1 (racemic) [I-138],≤ 100 nM
15,CCCCOc1ccc([C@H]2CC(Oc3cncnc3)=NO2)cc1 (racemic) [I-139],≤ 100 nM
16,CC(C)Oc1ccc([C@H]2CC(Oc3ccc(C(=O)O)nc3)=NO2)cc1 (racemic) [I-140],≤ 100 nM
17,CC(C)Oc1ccc([C@H]2CC(Oc3cncnc3)=NO2)cc1 (racemic) [I-141],≤ 100 nM
18,C#CCOc1ccc([C@H]2CC(Br)=NO2)cc1 (racemic) [I-142],≤ 100 nM
19,C#CCOc1ccc([C@H]2CC(Oc3cncnc3)=NO2)cc1 (racemic) [I-143],100 to 1000 nM

row,Structure (SMILES),Ki
1,C#CCOc1ccc([C@H]2CC(Oc3ccc(C(=O)OC)nc3)=NO2)cc1 (racemic) [I-144],≤ 100 nM
2,C#CCOc1ccc([C@H]2CC(Oc3ccc(C(=O)O)nc3)=NO2)cc1 (racemic) [I-145],≤ 100 nM
3,O=C(O)c1cccc(OC2=NOC(c3ccc(Oc4ccccc4)cc3)C2)c1 (racemic) [I-146],100 to 1000 nM
4,O=C(O)c1ccc(OC2=NOC(c3ccc(Oc4ccccc4)cc3)C2)cc1 (racemic) [I-147],≤ 100 nM
5,BrC1=NO[C@@H](c2ccc(Br)cc2)C1 (racemic) [I-148],≤ 100 nM
6,COC(=O)c1ccc(OC2=NO[C@@H](c3ccc(Br)cc3)C2)cn1 (racemic) [I-149],≤ 100 nM
7,O=C(O)c1ccc(OC2=NOC(c3ccc(Br)cc3)C2)cn1 (racemic) [I-150],≤ 100 nM
8,COC(=O)c1cc(OC2=NOC(c3ccc(OC(F)(F)F)cc3)C2)ccn1 (racemic) [I-151],≤ 100 nM
9,O=C(O)c1cc(OC2=NOC(c3ccc(OC(F)(F)F)cc3)C2)ccn1 (racemic) [I-152],≤ 100 nM
10,Clc1ccc([C@H]2CC(Oc3cncnc3)=NO2)cc1 (racemic) [I-153],100 to 1000 nM
11,CC1(c2ccc(OC(F)(F)F)cc2)CC(Oc2ccc(-c3ccoc3)nc2)=NO1 (racemic) [I-154],≤ 100 nM
12,Cc1nnc(-c2ccc(OC3=NOC(c4ccc(Oc5ccccc5)cc4)C3)cn2)o1 (racemic) [I-155],≤ 100 nM
13,Cc1nnc(-c2ccc(OC3=NOC(C)(c4ccc(OC(F)(F)F)cc4)C3)cn2)o1 (racemic) [I-156],≤ 100 nM
14,Cc1nnc(-c2ccc(OC3=NOC(c4ccc(OC(F)(F)F)cc4)C3)cn2)o1 (racemic) [I-157],≤ 100 nM
15,Cc1nnc(-c2ccc(OC3=NOC(C)(c4ccc(OC(F)(F)F)cc4)C3)cn2)s1 (racemic) [I-158],≤ 100 nM
16,Cc1nnc(-c2ccc(OC3=NOC(c4ccc(Oc5ccccc5)cc4)C3)cc2)o1 (racemic) [I-159],≤ 100 nM
17,Cc1nnc(-c2cccc(OC3=NOC(c4ccc(Oc5ccccc5)cc4)C3)c2)o1 (racemic) [I-160],≤ 100 nM
18,FC(F)(F)Oc1ccc(C2CC(Oc3ccc(-c4nccs4)nc3)=NO2)cc1 (racemic) [I-162],≤ 100 nM
